Measured values reported in ChEMBL document CHEMBL3046773 (Med Chem Res, 2013).

Target: Voltage-dependent L-type calcium channel subunit alpha-1C (Cavia porcellus, UniProt O35505)
Assay: Antagonist activity at calcium channel in Cavia porcellus (guinea pig) ileum assessed as inhibition of KCl-induced muscle contraction at 10 mM; call rule not given here
Assay type: tissue-based

Sequence of Voltage-dependent L-type calcium channel subunit alpha-1C (O35505 whole entry): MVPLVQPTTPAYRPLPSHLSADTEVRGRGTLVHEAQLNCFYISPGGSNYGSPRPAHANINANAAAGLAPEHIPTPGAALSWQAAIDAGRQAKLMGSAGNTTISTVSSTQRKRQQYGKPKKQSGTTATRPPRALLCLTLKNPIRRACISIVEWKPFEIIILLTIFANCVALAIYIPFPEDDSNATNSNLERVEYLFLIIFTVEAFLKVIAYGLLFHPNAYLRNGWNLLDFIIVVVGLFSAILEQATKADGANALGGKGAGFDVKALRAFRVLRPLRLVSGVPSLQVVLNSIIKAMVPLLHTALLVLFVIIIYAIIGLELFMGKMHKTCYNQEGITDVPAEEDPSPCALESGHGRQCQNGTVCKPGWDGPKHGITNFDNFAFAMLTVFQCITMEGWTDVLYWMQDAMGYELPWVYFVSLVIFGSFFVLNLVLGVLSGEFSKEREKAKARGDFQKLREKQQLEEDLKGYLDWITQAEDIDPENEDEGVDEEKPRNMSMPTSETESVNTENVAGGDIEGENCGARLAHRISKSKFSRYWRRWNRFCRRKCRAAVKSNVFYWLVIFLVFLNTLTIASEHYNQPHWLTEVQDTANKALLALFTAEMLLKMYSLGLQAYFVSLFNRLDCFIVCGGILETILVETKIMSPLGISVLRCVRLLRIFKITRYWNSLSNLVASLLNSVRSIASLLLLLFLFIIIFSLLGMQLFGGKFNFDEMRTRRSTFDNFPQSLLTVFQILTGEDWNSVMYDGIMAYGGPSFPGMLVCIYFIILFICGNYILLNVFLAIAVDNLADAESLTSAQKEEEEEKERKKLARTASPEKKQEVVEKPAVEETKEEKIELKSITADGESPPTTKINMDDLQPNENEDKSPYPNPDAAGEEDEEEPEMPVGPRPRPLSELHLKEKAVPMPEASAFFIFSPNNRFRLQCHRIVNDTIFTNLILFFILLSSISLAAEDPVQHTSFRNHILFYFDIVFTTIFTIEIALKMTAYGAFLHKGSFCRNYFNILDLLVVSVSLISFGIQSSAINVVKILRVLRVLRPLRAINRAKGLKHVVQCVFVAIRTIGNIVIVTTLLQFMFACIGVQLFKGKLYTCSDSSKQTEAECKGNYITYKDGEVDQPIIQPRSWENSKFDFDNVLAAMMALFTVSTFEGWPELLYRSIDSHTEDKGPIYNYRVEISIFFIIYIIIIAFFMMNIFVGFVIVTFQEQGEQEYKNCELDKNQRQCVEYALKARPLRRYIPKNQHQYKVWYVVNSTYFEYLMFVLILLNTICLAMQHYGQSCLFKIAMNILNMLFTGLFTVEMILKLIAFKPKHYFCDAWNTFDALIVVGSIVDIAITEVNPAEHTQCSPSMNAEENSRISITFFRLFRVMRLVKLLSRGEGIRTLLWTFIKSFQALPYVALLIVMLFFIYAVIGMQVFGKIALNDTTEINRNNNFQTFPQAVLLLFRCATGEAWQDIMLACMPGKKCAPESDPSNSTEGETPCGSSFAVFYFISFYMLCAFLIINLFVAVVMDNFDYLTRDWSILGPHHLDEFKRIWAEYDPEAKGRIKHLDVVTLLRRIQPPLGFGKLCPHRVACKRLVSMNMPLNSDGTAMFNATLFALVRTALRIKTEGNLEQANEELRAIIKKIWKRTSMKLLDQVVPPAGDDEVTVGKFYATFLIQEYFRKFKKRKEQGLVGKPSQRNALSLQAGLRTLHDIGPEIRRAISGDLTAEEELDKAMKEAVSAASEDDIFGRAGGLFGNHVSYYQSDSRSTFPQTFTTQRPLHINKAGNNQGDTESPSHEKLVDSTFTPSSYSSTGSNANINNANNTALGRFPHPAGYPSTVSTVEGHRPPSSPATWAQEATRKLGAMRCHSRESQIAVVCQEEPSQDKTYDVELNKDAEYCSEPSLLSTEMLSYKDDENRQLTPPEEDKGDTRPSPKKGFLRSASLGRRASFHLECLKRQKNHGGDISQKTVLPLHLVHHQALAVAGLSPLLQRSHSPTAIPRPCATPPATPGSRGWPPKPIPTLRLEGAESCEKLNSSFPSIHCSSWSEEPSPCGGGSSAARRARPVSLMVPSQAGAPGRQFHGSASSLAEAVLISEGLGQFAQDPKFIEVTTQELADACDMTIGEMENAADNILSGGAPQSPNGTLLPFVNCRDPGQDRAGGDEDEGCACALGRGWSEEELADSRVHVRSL

COC(=O)C1=C(C)NC(C)=C(C(=O)OC)C1c1ccccc1[N+](=O)[O-] [NIFEDIPINE]
inhibition (INH): Active
